Laboratory results as given in the METLIN SMRT retention time set (Domingo-Almenara et al. 2019).

Assay: gradient 5% acetonitrile 3 min, to 50% in 2 min, to 85% in 15 min, held 3 min, 100 µL/min
Details: column: Zorbax Extend-C18 2.1 x 50 mm; eluents: water / acetonitrile, 0.1% formic acid
Summary of the method: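 Pure standards were analyzed in mixtures of ~100 molecules using HPLC coupled to a quadrupole time-of-flight mass spectrometer, in both positive and negative ionization mode. Separation used a Zorbax Extend-C18 column (2.1 × 50 mm, 1.8 μm) at 100 μL/min, with water and acetonitrile each containing 0.1% formic acid. Dead and dwell volumes were 40 μL and 900 μL, and data were collected over 3 months. Retention time was read from computationally picked adduct peaks, each inspected manually.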

RP-LC retention time	SMILES
805 s	CCN1c2ccc(C)cc2C(=O)NC12CCN(C(=O)c1cccc(OC)c1)CC2
817 s	COc1ccc(N2CCN(C(=O)c3cn(-c4cc(N5CCCCC5)ncn4)cn3)CC2)cc1
696 s	CC1(CNC(=O)NCCc2ccccc2)CCOCC1
1110 s	CC1=NS(=O)(=O)N(Cc2ccccc2)C=C1C(=O)OCc1nc(-c2ccc(C)cc2)no1
798 s	COc1ccc(OC)c(NC(=O)Cn2c(=O)c(CCC(=O)NCC(C)C)nc3ccccc32)c1
788 s	COC(=O)N1CCc2ccc(F)cc2C1C(=O)Nc1ncc(C)s1 (stereo not drawn)
992 s	O=C(Cn1cccc(-c2nc(-c3ccc(F)cc3)no2)c1=O)Nc1ccc(Br)cc1
843 s	Cn1cccc1CN(C(=O)C1(c2ccccc2)CCOCC1)C1CC1
614 s	CCCNC(=O)C1CCN(c2ccc(SCC(=O)Nc3c(F)cccc3F)nn2)CC1
658 s	CCOC(=O)C(C)NC(=O)N1CCN(Cc2nc3cccnc3n2-c2cc(C)cc(C)c2)CC1 (stereo not drawn)
972 s	COc1ccc(OC)c(S(=O)(=O)N2CCCC(C(=O)Nc3cccc(SC)c3)C2)c1 (stereo not drawn)
1090 s	CCN1C(=O)COc2ccc(-c3csc(NC(=O)c4ccc(Cl)cc4)n3)cc21
1120 s	COCCSc1nc(-c2cccs2)cc(C(F)(F)F)c1C#N
835 s	Cc1ccc(S(=O)(=O)N2CCCN(c3ccc(=O)n(-c4ccccc4)n3)CC2)cc1
592 s	Cc1cc(=O)n(CC(=O)Nc2cc(C)on2)c(N2CCOCC2)n1
950 s	Cc1onc(-c2ccccc2Cl)c1C(=O)NCC1(c2cccs2)CC1
1080 s	COc1ccc(-c2cc3n(n2)CCCN(S(=O)(=O)c2ccc4c(c2)CCC4)C3)cc1
643 s	O=C(Nc1nnc(C2=COCCO2)o1)C1CCN(S(=O)(=O)c2cccs2)CC1
1170 s	COc1ccc(NC(=O)c2noc3c2CC(C)CC3)c(OC)c1 (stereo not drawn)
834 s	CC(C)c1c(C2CCN(C(=O)c3cccc(Br)c3)CC2)noc1N
816 s	COc1ccc(C)cc1NC(=O)C1CCN(S(=O)(=O)c2ccc3c(c2)CCCC(=O)N3)CC1
670 s	C=CCN1CCc2c(cc(O)c(O)c2Br)[C@@H](c2ccccc2)C1

RP-LC retention time	SMILES
1460 s	COc1ccc(OC(=O)c2cc3c(C)nn(-c4cccc(F)c4)c3s2)cc1
818 s	O=C(NCc1ccc(F)c(Cl)c1)C1CCCN(c2ncnc3c2oc2ccccc23)C1 (stereo not drawn)
751 s	Cc1cc2c(=O)n(CC(=O)NCc3ccc(F)cc3)ccc2s1
607 s	CC1CC(=O)c2cn3ncnc3nc2C1 (stereo not drawn)
602 s	COc1ccc(NC(=O)Cn2nc3nc(N4CCOCC4)ccn3c2=O)cc1F
760 s	CCCn1ccc2sc(C)c(C(=O)N3CCCCC3)c2c1=O
1120 s	Cc1ccc(C)c(N2CCN(c3ccnc(SCC(=O)Nc4cc(F)ccc4F)n3)CC2)c1
677 s	Cc1cccc(-c2ncccc2CNS(=O)(=O)c2ccccc2)c1
834 s	COc1ccc(F)cc1S(=O)(=O)N1C[C@@H]2C[C@H](NC(=O)c3cccs3)[C@H]1C2
906 s	CCc1nnc(NC(=O)c2ccc(-c3ccccc3Cl)o2)s1
871 s	Fc1ccc(-c2nc(-c3ccc(-n4ccnc4)nc3)no2)cc1F
806 s	COC(=O)C1=CN(C2CC2)c2cc(N3CCC4(CC3)OCCO4)c(F)cc2S1(=O)=O
656 s	Cc1cccc2nnc(N3CCC(C(=O)Nc4ccc(Cl)cc4)CC3)n12
935 s	CCn1c(C)c(CCC(=O)Nc2ccc(C)c(C)c2)c(=O)n2nc(-c3ccccc3)nc12
756 s	COc1ccc2[nH]cc(CCNC(=O)Cn3nc4c(cc3=O)CCCCC4)c2c1
683 s	CC(C)(C)C(=O)Nc1ccc2nc(N3CCN(c4ccccc4)CC3)cc(C(=O)O)c2c1
944 s	O=c1ccc(S(=O)(=O)N2CCCCCC2)cn1Cc1cccc(F)c1
1090 s	COc1ccc(-c2cc3c(=O)n(Cc4nc(-c5ccccc5Br)no4)ncn3n2)cc1
846 s	CCN1c2ccc(F)cc2C(=O)NC12CCN(C(=O)Cc1ccccc1C)CC2
682 s	Cc1ccc2nsnc2c1NC(=O)Cn1c(-c2cncs2)nc2ccccc21
689 s	Cc1ccn2cc(-c3ccc(NS(=O)(=O)c4ccc(Br)cc4)cc3)nc2n1
880 s	Cc1nc(-c2csc(S(=O)(=O)N3CCCC(C(=O)NCc4ccc5c(c4)OCO5)C3)c2)no1 (stereo not drawn)

RP-LC retention time	SMILES
717 s	COC(=O)c1sccc1S(=O)(=O)N1CCN(S(=O)(=O)C2CC2)CC1
1140 s	CC(C)c1ccc(N2C(=O)C3N=NN(Cc4nc(-c5ccccc5Br)no4)C3C2=O)cc1 (stereo not drawn)
592 s	O=C(Cn1c(=O)c2cccn2c2ccccc21)NCCN1CCOCC1
759 s	CCCC(=O)Nc1ccc(-c2nc(Cn3cccn3)c(C)o2)cc1
1050 s	CCOc1ccc(-c2noc(Cn3c(=O)n(CCCOC)c(=O)c4ccccc43)n2)cc1
834 s	CCN1C(=O)CCc2cc(NS(=O)(=O)c3ccc(F)c(C)c3)ccc21
735 s	COC(=O)c1cnc2nc(C)ccc2c1Nc1cc(OC)cc(OC)c1
754 s	Cc1ccc(C)c(NC(=O)N2CCC(N3CCN(Cc4ccc(F)cc4)C(=O)C3=O)CC2)c1
782 s	CCOc1ccccc1NC(=O)NCCc1nc2cccnc2n1C1CCCC1
718 s	COc1ccc(-c2cn3cccnc3n2)cc1NC(=O)c1cccc(OC)c1OC
1060 s	N#Cc1ccc(C(=O)N2CCCC2c2nc(-c3cccc(C(F)(F)F)c3)no2)c(F)c1 (stereo not drawn)
606 s	COCCc1nncn1C1CN(Cc2cccc(OC(F)(F)F)c2)C1
628 s	O=C(Nc1ccc(F)c(Cl)c1)Nc1c(-c2ccncc2)nc2ccccn12
812 s	Cn1ncc2c3ccccc3n(CCCC(=O)NCc3ccccc3F)c2c1=O
645 s	Cc1[nH]c(C(=O)N2CCCC(C(=O)N3CCN(C4CCCCC4)CC3)C2)c(C)c1C(=O)OC(C)C (stereo not drawn)
736 s	O=C1C=C(NCCc2ccccc2)c2ccccc2C1=O
846 s	O=c1c2cc(-c3ccccc3)nn2ccn1CC(O)c1ccccc1 (stereo not drawn)
935 s	Cc1cc(-n2c(C)nc3ccccc3c2=O)ccc1NC(=O)C(C)Oc1cccc(Cl)c1 (stereo not drawn)
581 s	O=C(NCc1cnccn1)c1ccnc(N2CCNC(c3ccccc3)C2)c1 (stereo not drawn)
943 s	Cc1ccc(N2CCC(NC(=O)c3cc(F)cc(F)c3)C2=O)cc1C (stereo not drawn)
783 s	Cc1ccc(CN2C(=O)C3(CCOCC3)CC2c2nnnn2C(C)(C)C)cc1 (stereo not drawn)
746 s	CC(C)CC(NC(=O)c1ccc(F)cc1)C(=O)Nc1nc2ccccc2[nH]1 (stereo not drawn)

RP-LC retention time	SMILES
946 s	Cn1nc(C(C)(C)C)cc1C(=O)N[C@@H](Cc1cccc(Cl)c1)C(=O)NCC#N
1170 s	O=S(=O)(c1ccc(F)cc1)N1CCc2nc(-c3ccc(Cl)cc3)ncc2C1
778 s	COc1ccc(CCNC(=O)C2CCCN(c3ncnc4c3nc3n4CCCCC3)C2)c(OC)c1 (stereo not drawn)
957 s	O=C(Nc1ccccc1)c1n[nH]c2c1CCCCCC2
1100 s	COc1ccc(-c2noc(-c3nnn(Cc4nc(-c5ccccc5OC)oc4C)c3C)n2)cc1
704 s	CCN(C(=O)Cn1c(CN(C)C(=O)c2ccco2)nc2ccccc21)c1ccccc1
631 s	COc1ccc(CC(C)(O)CNC(=O)C2CC2)cc1 (stereo not drawn)
1050 s	COc1cccc(Oc2nccnc2N2CCC(C(=O)NCCC3=CCCCC3)CC2)c1
549 s	COCC(C)(O)CNC(=O)c1ccco1 (stereo not drawn)
956 s	CCCN1C(=O)COc2ccc(-c3noc(-c4ccn(CC)n4)n3)cc21
1370 s	CCCc1ccc(S(=O)(=O)N2CCC(c3noc(-c4ccc(C)cc4)n3)CC2)cc1
626 s	CCOC(=O)c1[nH]c(C)c(CCC(=O)N2CCC(C(=O)NCCCN3CCCC3=O)CC2)c1C
920 s	CCOC(=O)c1ccc(NC(=O)N2CCC(n3c(C(F)(F)F)nc4cccnc43)CC2)cc1
727 s	Cc1ccccc1NC(=O)N1CCC2(C1)C(=O)Nc1ccccc12 (stereo not drawn)
601 s	CN(C)c1ncccc1NC(=O)Nc1ccccc1F
996 s	CC(C)c1ccc(C(=O)NC(Cc2ccccc2)c2nnc(N3CCSCC3)o2)cc1 (stereo not drawn)
724 s	CN1c2cc(F)ccc2C(=O)NC12CCN(C(=O)c1ccc3c(c1)OCO3)CC2
1310 s	Cc1ccc(-c2noc(C3CCCN3S(=O)(=O)c3ccc(C(C)C)cc3)n2)cc1 (stereo not drawn)
1070 s	CCCN1C(=O)c2cc(S(=O)(=O)NC(C)c3ccccc3)ccc2Oc2cccnc21 (stereo not drawn)
607 s	CN(C)c1ccc(CNC(=O)c2cc3n(n2)CC(C)(C(=O)NCc2ccccc2)N(C)C3=O)cc1 (stereo not drawn)
921 s	COc1ccc(NC(=O)N2CC(C)Oc3ccc(C)cc32)cc1OC (stereo not drawn)

SMILES	RP-LC retention time
CCc1ccc(-n2nnc(C(=O)N3CCC4(CC3)OCCO4)c2-c2cccnc2)cc1	783 s
